“Also recorded” adds a separate entry of the source.
Assays:
[1] = tested on: MIAP3; experiment: Western blotting of MIAP3 after V-AMIAP3 treatment of PC12 cells; format: cell-based; conditions: within 5 hours
Description: PC12 cells were treated with V-AMIAP3 (240 nM) for 6 hours. Cells lysates containing equal amounts of protein were subjected to Western blotting using the corresponding antisera. Actin staining confirmed equal loading. These are representative blots. Similar results were obtained in 2 independent experiments.
Postnatal day 1 mouse brains were harvested in sample buffer. For antisense down-regulation studies, PC12 cells, grown as previously described, were treated with various antisense constructs for 5 hours and harvested in sample buffer. Equal amounts of protein were separated by 15% PAGE, transferred to nitrocellulose and immunostained as described (Troy et al, 2000). Anti-caspase-9 (MBL) was used at 1:1000, anti-APAF-1 (StressGen) was used at 1:1000, anti-Smac was used at 1:2000, anti-XIAP (StressGen) was used at 1:1000, anti-RAIDD (StressGen) was used at 1:500 and anti-actin (Sigma) was used at 1:200. Visualization was with ECL, using goat-anti-rabbit peroxidase at 1:1000. The relative intensities of the protein bands were quantified using Scion Image 1.55 software (NIH).

[2] = tested on: wild-type sympathetic neurons; experiment: Survival of NGF-deprived (TFD) wild-type sympathetic neurons; format: cell-based, mouse; conditions: for protection from NGF withdrawal (survival): anti-NGF plus antisense oligonucleotides, scored daily for three days; for protection from TFD-induced death (survival): anti-NGF, BAF 50 μM, DEVD-FMK 10 μM
Description: (§1) Sympathetic neuron cultures were prepared from 1-day-old wild-type and caspase-2−/− mouse pups (Bergeron et al. 1998). Cultures were grown in 24-well collagen-coated dishes for survival experiments and in 6-well collagen-coated dishes for RNA and protein extraction in RPMI 1640 medium plus 10% horse serum with mouse NGF (100 ng/ml). One day following plating, uridine and 5-fluorodeoxyuridine (10 μM each) were added to the cultures and left for three days to eliminate non-neuronal cells (less than 1% non-neuronal cells remain after 3 days). For survival experiments, on the sixth day following plating, NGF was removed by washing the cultures three times with RPMI 1640 medium plus 10% horse serum, followed by the addition of medium containing anti-mouse NGF (1:200, Sigma). Caspase inhibitors (Enzyme Systems Products) were added as indicated. Each culture was scored, as previously described (Troy et al., 1997), for numbers of living, phase-bright neurons present in the same field at various times. Three replicate cultures were assessed for each condition and data are normalized to numbers of neurons present in each culture at the time of NGF deprivation and reported as mean±SEM. For RNA and protein extraction on the sixth day following plating, RNA and protein were extracted using the Trizol reagent according to the manufacturer's protocol.

[3] = tested on: caspase-2-null sympathetic neurons; experiment: Survival of NGF-deprived (TFD) caspase-2-null sympathetic neurons; format: cell-based, mouse; conditions: caspase-2-null neurons; for protection from NGF withdrawal (survival): anti-NGF plus antisense oligonucleotides, scored daily for three days; for protection from TFD-induced death (survival): anti-NGF, BAF 50 μM, DEVD-FMK 10 μM
Description: as §1

Compound	down-regulation of MIAP3 [1] [%]	protection from NGF withdrawal (survival) [2]	protection from NGF withdrawal (survival) [3]	protection from TFD-induced death (survival) [2]	protection from TFD-induced death (survival) [3]
GTTAAAAGTCATCTTCTCTGG (chemistry not given here) [V-AMIAP3, PENETRATIN1™-linked antisense oligonucleotide to MIAP3]	70				
GTTGTTGTCCATGGTCACTTT (chemistry not given here) [V-ACasp3, PENETRATIN1™-linked antisense oligonucleotide to caspase-3]		no protection	protected		
CTGCCGGTCCGCCTCGTCCAT (chemistry not given here) [V-ACasp9, PENETRATIN1™-linked antisense oligonucleotide to caspase-9]		no protection	protected		
COC(=O)CC(NC(=O)OC(C)(C)C)C(=O)CF (stereo not drawn) [BAF]				protects; also recorded: rescued	protects; also recorded: rescued
COC(=O)CC[C@H](NC(=O)[C@H](CC(=O)OC)NC(=O)OCc1ccccc1)C(=O)N[C@H](C(=O)N[C@@H](CC(=O)OC)C(=O)CF)C(C)C [DEVD-FMK]				provided protection only for caspase-2-null neurons; also recorded: only the caspase-2-null neurons were rescued	provided protection; also recorded: rescued

— patent US20040254136A1, “Antisense oligonucleotides and related methods for regulating cell death” (priority 2001, published 2004)
